In patent US8183238B2, “Bicyclic and tricyclic compounds as KAT II inhibitors” (priority 2009, dated 2012):

Assays:
[1] = biological target: human KAT II (hKAT II) enzyme (Homo sapiens, UniProt Q8N5Z0); experiment: KAT II Inhibition Spectra Assay; type: biochemical; conditions: Table 6; hKAT II, decrease in OD370, 37° C., 15-20 h; read-out: KATII IC50
In short: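 hKAT II (15 nM, 3× stock) converts L-kynurenine (3 mM, 3× stock) with α-ketoglutarate and PLP in Tris acetate; 15–20 h at 37 °C. Inhibition of the OD370 decrease read versus DMSO wells across a concentration range gives IC50.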

[2] = Prodrug in vivo pharmacokinetics in dogs (plasma, LC-MS-MS); design: species or system Dog (Beagle); conditions: for AUC / Cmax / Tmax / half-life: Beagle, dog
Protocol: Test substances (Examples 4 and 71-73) were administered by oral gavage to groups of two dogs. Example 71 was also administered intravenously.
Blood samples were taken at various times after administration and submitted to analysis for the parent drug (Example 71) and pro-drug (Examples 72 and 73) using an LC-MS-MS assay. Pharmacokinetic parameters derived from the plasma analytical data were determined using Watson LIMS 7.2.003 (Thermo Fisher Scientific, Waltham, Mass.). The results are given in FIG. 1 and Tables 8, 9, 10, and 11.

[3] = Prodrug in vivo pharmacokinetics in monkeys (plasma, LC-MS-MS); design: species or system Monkey (Cynomolgus); conditions: for AUC / Cmax / Tmax / half-life: cynomolgus monkey; for F: calculated using IV AUC of 476 ng · h/mL
Protocol: Test substances (Examples 4 and 71-73) were administered by oral gavage to groups of two monkeys.
Blood samples were taken at various times after administration and submitted to analysis for the parent drug (Example 4 and Example 71) and pro-drug (Examples 72 and 73) using an LC-MS-MS assay. […] Pharmacokinetic parameters derived from the plasma analytical data were determined using Watson LIMS 7.2.003 (Thermo Fisher Scientific, Waltham, Mass.). The results are given in FIG. 2 and Tables 13, 14, and 15.

[4] = plasma, po, 2 mg/kg, Example 71 in dog plasma after oral Example 71 (2 mg/kg active), Dog 1
[5] = plasma, po, 2 mg/kg, Example 71 in dog plasma after oral Example 71 (2 mg/kg active), Dog 2
[6] = plasma, po, 2 mg/kg, Example 71 in dog plasma after oral Example 71 (2 mg/kg active), Mean
[7] = Cynomolgus, plasma, po, 3 mg/kg, Example 71 in monkey plasma after oral Example 71 (3 mg/kg active), Mean
[8] = Cynomolgus, plasma, po, 3 mg/kg, Example 71 in monkey plasma after oral Example 71 (3 mg/kg active), Monkey 1
[9] = Cynomolgus, plasma, po, 3 mg/kg, Example 71 in monkey plasma after oral Example 71 (3 mg/kg active), Monkey 2
[10] = Example 71 in monkey plasma after oral Example 71 (3 mg/kg active), Mean
[11] = Example 71 in monkey plasma after oral Example 71 (3 mg/kg active), Monkey 1
[12] = Example 71 in monkey plasma after oral Example 71 (3 mg/kg active), Monkey 2
[13] = plasma, po, 1 mg/kg, Example 72 in dog plasma after oral Example 72 (1 mg/kg active), Dog 1
[14] = plasma, po, 1 mg/kg, Example 72 in dog plasma after oral Example 72 (1 mg/kg active), Dog 2
[15] = plasma, po, 1 mg/kg, Example 72 in dog plasma after oral Example 72 (1 mg/kg active), Mean

human KAT II (hKAT II) enzyme, sequence (Q8N5Z0 30-425): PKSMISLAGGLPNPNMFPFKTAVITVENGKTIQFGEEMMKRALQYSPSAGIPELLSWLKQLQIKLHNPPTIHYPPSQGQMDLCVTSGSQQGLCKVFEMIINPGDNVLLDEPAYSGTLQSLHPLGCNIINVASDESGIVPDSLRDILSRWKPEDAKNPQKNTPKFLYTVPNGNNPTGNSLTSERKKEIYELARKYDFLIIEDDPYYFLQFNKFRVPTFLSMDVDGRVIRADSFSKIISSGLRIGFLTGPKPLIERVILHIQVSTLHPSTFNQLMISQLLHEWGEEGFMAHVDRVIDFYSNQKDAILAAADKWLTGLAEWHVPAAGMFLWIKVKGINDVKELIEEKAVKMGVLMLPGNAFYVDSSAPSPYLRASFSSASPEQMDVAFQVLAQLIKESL

Q: With `Cl.N[C@H]1Cc2cc(Oc3ccccc3)ccc2N(O)C1=O` [Example 71, (3S)-3-amino-1-hydroxy-6-phenoxy-3,4-dihydroquinolin-2(1H)-one, hydrochloride salt] as the compound, how does the IC50 [1] read?
A: 22.7 nM

Q: What about the AUC ([2]; in vivo, exposure of Example 71 in dogs following intravenous administration of Example 71 at 0.5 mg/kg, read-out: AUC) of the same compound?
A: 247 ng·h/mL

Q: What about the Cmax [2, 4] of the same compound?
A: 25.4 ng/mL

Q: And the Tmax [2, 4]?
A: 15 min

Q: What about the half-life [2, 4] of the same compound?
A: 26.3 min

Q: What about the AUC ([2]; plasma, po, 2 mg/kg, Example 71 in dog plasma after oral Example 71 (2 mg/kg active), Dog 1, read-out: AUC) of the same compound?
A: 10.3 ng·h/mL

Q: And the AUC ([2]; plasma, po, 2 mg/kg, Example 71 in dog plasma after oral Example 71 (2 mg/kg active), Dog 1, read-out: AUC Extrap)?
A: 10.7 ng·h/mL

Q: And the Cmax [2, 5]?
A: 15.4 ng/mL

Q: What about the Tmax [2, 5] of the same compound?
A: 15 min

Q: What about the half-life [2, 5] of the same compound?
A: 17.9 min

Q: And the AUC ([2]; plasma, po, 2 mg/kg, Example 71 in dog plasma after oral Example 71 (2 mg/kg active), Dog 2, read-out: AUC)?
A: 12.2 ng·h/mL

Q: And the AUC ([2]; plasma, po, 2 mg/kg, Example 71 in dog plasma after oral Example 71 (2 mg/kg active), Dog 2, read-out: AUC Extrap)?
A: 12.5 ng·h/mL

Q: And the Cmax [2, 6]?
A: 20.4 ng/mL

Q: And the Tmax [2, 6]?
A: 15 min

Q: And the half-life [2, 6]?
A: 22.1 min

Q: What about the AUC ([2]; plasma, po, 2 mg/kg, Example 71 in dog plasma after oral Example 71 (2 mg/kg active), Mean, read-out: AUC) of the same compound?
A: 11.3 ng·h/mL

Q: What about the AUC ([2]; plasma, po, 2 mg/kg, Example 71 in dog plasma after oral Example 71 (2 mg/kg active), Mean, read-out: AUC Extrap) of the same compound?
A: 11.6 ng·h/mL

Q: What about the “% AUC Extrap” value ([2]; Example 71 in dog plasma after oral Example 71 (2 mg/kg active), Dog 1) of the same compound?
A: 3.44%

Q: What about the “% AUC Extrap” value ([2]; Example 71 in dog plasma after oral Example 71 (2 mg/kg active), Dog 2) of the same compound?
A: 2.35%

Q: And the “% AUC Extrap” value ([2]; Example 71 in dog plasma after oral Example 71 (2 mg/kg active), Mean)?
A: 2.9%

Q: What about the F ([2]; Example 71 in dog plasma after oral Example 71 (2 mg/kg active), calculated using IV AUC of 247 ng · h/mL, Dog 1) of the same compound?
A: 1.0%

Q: What about the F ([2]; Example 71 in dog plasma after oral Example 71 (2 mg/kg active), calculated using IV AUC of 247 ng · h/mL, Dog 2) of the same compound?
A: 1.3%

Q: What about the F ([2]; Example 71 in dog plasma after oral Example 71 (2 mg/kg active), calculated using IV AUC of 247 ng · h/mL, Mean) of the same compound?
A: 1.2%

Q: What about the AUC ([3]; Cynomolgus, in vivo, plasma exposure of Example 71 in monkeys following intravenous administration of Example 71 at 0.5 mg/kg, read-out: AUC) of the same compound?
A: 476 ng·h/mL

Q: And the Cmax [3, 7]?
A: 53.4 ng/mL

Q: And the Tmax [3, 7]?
A: 22.8 min

Q: And the half-life [3, 7]?
A: 52.9 min

Q: What about the Cmax [3, 8] of the same compound?
A: 44 ng/mL

Q: And the Tmax [3, 8]?
A: 15 min

Q: And the half-life [3, 8]?
A: 62.4 min

Q: What about the Cmax [3, 9] of the same compound?
A: 62.8 ng/mL

Q: What about the Tmax [3, 9] of the same compound?
A: 30 min

Q: What about the half-life [3, 9] of the same compound?
A: 43.4 min

Q: What about the “% AUC Extrap” value [3, 10] of the same compound?
A: 1.28%

Q: And the “% AUC Extrap” value [3, 11]?
A: 2.19%

Q: What about the “% AUC Extrap” value [3, 12] of the same compound?
A: 0.366%

Q: What about the F [3, 10] of the same compound?
A: 3.2%

Q: What about the F [3, 11] of the same compound?
A: 2.2%

Q: And the F [3, 12]?
A: 4.2%

Q: And the AUC ([3]; plasma, po, 3 mg/kg, Example 71 in monkey plasma after oral Example 71 (3 mg/kg active), Mean, read-out: AUC)?
A: 94.8 ng·h/mL

Q: What about the AUC ([3]; plasma, po, 3 mg/kg, Example 71 in monkey plasma after oral Example 71 (3 mg/kg active), Mean, read-out: AUC Extrap) of the same compound?
A: 95.4 ng·h/mL

Q: What about the AUC ([3]; plasma, po, 3 mg/kg, Example 71 in monkey plasma after oral Example 71 (3 mg/kg active), Monkey 1, read-out: AUC) of the same compound?
A: 55.5 ng·h/mL

Q: What about the AUC ([3]; plasma, po, 3 mg/kg, Example 71 in monkey plasma after oral Example 71 (3 mg/kg active), Monkey 1, read-out: AUC Extrap) of the same compound?
A: 56.7 ng·h/mL

Q: What about the AUC ([3]; plasma, po, 3 mg/kg, Example 71 in monkey plasma after oral Example 71 (3 mg/kg active), Monkey 2, read-out: AUC) of the same compound?
A: 134 ng·h/mL

Q: What about the AUC ([3]; plasma, po, 3 mg/kg, Example 71 in monkey plasma after oral Example 71 (3 mg/kg active), Monkey 2, read-out: AUC Extrap) of the same compound?
A: 134 ng·h/mL

Q: Which AUC ([2]; plasma, iv, 0.47 mg/kg, exposure of Example 72 in dogs following intravenous administration of Example 72 at 0.47 mg/kg, read-out: AUC) does the source give for `CN(C)C(=O)ON1C(=O)[C@@H](N)Cc2cc(Oc3ccccc3)ccc21` [Example 72, (3S)-3-amino-1-[(dimethylcarbamoyl)oxy]-6-phenoxy-3,4-dihydroquinolin-2(1H)-one] here?
A: 497 ng·h/mL

Q: What about the Cmax [2, 13] of the same compound?
A: 142 ng/mL

Q: And the Tmax [2, 13]?
A: 30 min

Q: And the half-life [2, 13]?
A: 139 min

Q: What about the AUC ([2]; plasma, po, 1 mg/kg, Example 72 in dog plasma after oral Example 72 (1 mg/kg active), Dog 1, read-out: AUC) of the same compound?
A: 402 ng·h/mL

Q: And the AUC ([2]; plasma, po, 1 mg/kg, Example 72 in dog plasma after oral Example 72 (1 mg/kg active), Dog 1, read-out: AUC Extrap)?
A: 455 ng·h/mL

Q: And the Cmax [2, 14]?
A: 248 ng/mL

Q: And the Tmax [2, 14]?
A: 60 min

Q: What about the half-life [2, 14] of the same compound?
A: 116 min

Q: And the AUC ([2]; plasma, po, 1 mg/kg, Example 72 in dog plasma after oral Example 72 (1 mg/kg active), Dog 2, read-out: AUC)?
A: 721 ng·h/mL

Q: And the AUC ([2]; plasma, po, 1 mg/kg, Example 72 in dog plasma after oral Example 72 (1 mg/kg active), Dog 2, read-out: AUC Extrap)?
A: 790 ng·h/mL

Q: And the Cmax [2, 15]?
A: 195 ng/mL

Q: And the Tmax [2, 15]?
A: 45 min

Q: What about the half-life [2, 15] of the same compound?
A: 128 min

Q: And the AUC ([2]; plasma, po, 1 mg/kg, Example 72 in dog plasma after oral Example 72 (1 mg/kg active), Mean, read-out: AUC)?
A: 562 ng·h/mL

Q: And the AUC ([2]; plasma, po, 1 mg/kg, Example 72 in dog plasma after oral Example 72 (1 mg/kg active), Mean, read-out: AUC Extrap)?
A: 623 ng·h/mL

Q: What about the “% AUC Extrap” value ([2]; Example 72 in dog plasma after oral Example 72 (1 mg/kg active), Dog 1) of the same compound?
A: 11.7%

Q: What about the “% AUC Extrap” value ([2]; Example 72 in dog plasma after oral Example 72 (1 mg/kg active), Dog 2) of the same compound?
A: 8.77%

Q: And the “% AUC Extrap” value ([2]; Example 72 in dog plasma after oral Example 72 (1 mg/kg active), Mean)?
A: 10.2%

Q: What about the F ([2]; Example 72 in dog plasma after oral Example 72 (1 mg/kg active), calculated using IV AUC of 497 ng · h/mL, Dog 1) of the same compound?
A: 38%

Q: And the F ([2]; Example 72 in dog plasma after oral Example 72 (1 mg/kg active), calculated using IV AUC of 497 ng · h/mL, Dog 2)?
A: 54%

Q: And the F ([2]; Example 72 in dog plasma after oral Example 72 (1 mg/kg active), calculated using IV AUC of 497 ng · h/mL, Mean)?
A: 46%

Q: What about the “Plasma levels of Example 72” value ([3]; monkeys, oral gavage of Example 72, all time points) of the same compound?
A: below the limit of quantitation
